This note sets out measurements from patent publication US12281084B2, “Acetyl-CoA synthetase 2 (ACSS2) inhibitors and methods using same” (The Wistar Institute, priority 2019, dated 2025).

Entries after “also recorded” stand apart in the source; their conditions may differ.

One experiment deals with BT474 cells. The experiment is described as follows: 13C2-acetate tracing in BT474 cells. It is filed as cell-based, human. As to the method:
(§1) All metabolomic experiments were performed in serum-like modified Eagle's medium (SMEM). SMEM contains 54 different nutrients that are found in the bloodstream at concentrations that are physiologically relevant to humans. SMEM was supplemented with 10% or 1% fetal bovine serum (FBS; Life Technologies). Cells were grown in normoxia (atmospheric oxygen) or hypoxia (1% oxygen) while being incubated in uniformly labeled ^13C2-acetate (0.100 mM; Cambridge Isotope Laboratories). Lengths of incubation are described in the figure legends. For extraction of metabolites from cultured cells, SMEM medium was aspirated and cells were washed once in ice-cold PBS. Metabolites were extracted by adding a solution of LC-MS grade methanol/acetonitrile/water (5:3:2) to the well. Plates were incubated at 4° C. for 5 minutes on a rocker and then the extraction solution was collected. The metabolite extract was cleared by centrifugation at 15,000×g for 10 minutes at 4° C. Supernatants were transferred to LC-MS silanized glass vials with PTFE caps and either run immediately on the LC-MS or stored at −80° C. […]
(§2) LC-MS analysis was performed on a Q Exactive Hybrid Quadrupole-Orbitrap HF-X MS (ThermoFisher Scientific) equipped with a HESI II probe and coupled to a Vanquish Horizon UHPLC system (ThermoFisher Scientific). […] Samples were analyzed in full MS scan with polarity switching at scan range 65 to 975 m/z; 120,000 resolution; automated gain control (AGC) target of 1E6; and maximum injection time (max IT) of 100 milliseconds. Identification and quantitation of metabolites was performed using an annotated compound library and TraceFinder 4.1 software. […]
The ^13C2-acetate tracer studies were repeated in BT474 and MDA-MB-468 cells and polar metabolites were isolated in order to analyze carbon-13 labeling of the cytosolic metabolite UDP-N-acetylglucosamine (UDP-GlcNAc) and the mitochondrial metabolite citrate. Citrate is a readout of ACSS1 and ACSS3 activity in the cells since they are the mitochondria localized AcCoA synthetase family members (FIG. 11A). […]

The subject of another experiment is MDA-MB-468 cells. The experiment is described as follows: 13C2-acetate tracing in MDA-MB-468 cells. Type of experiment: cell-based, human. The following applies: MDA-MB-468 cells (FIG. 11D). As to the method:
as §1, with “well.” for “well. Plates were incubated at 4° C. for 5 minutes on a rocker and then the extraction solution was collected. The metabolite extract was cleared by centrifugation at 15,000×g for 10 minutes at 4° C. Supernatants were transferred to LC-MS silanized glass vials with PTFE caps and either run immediately on the LC-MS or stored at −80° C.”
as §2

The next experiment deals with sgACSS2 Brpkp110 tumors. Put plainly: sgACSS2 (Acss2 knockout) Brpkp110 tumor xenograft growth in NSG mice. Type of experiment: in vivo, mouse. The following applies: tumors lacking ACSS2 expression (FIG. 5F). The text has this: CRISPR-Cas9 pools of Brpkp110 and A7C11 were generated using single guide RNAs against exon 1 in mouse Acss2. Cas9 and guide RNAs were introduced into Brpkp110 and A7C11 cell by lentiviral infection. Briefly, HEK293T cells were transfected (Lipofectamine 2000) with psPAX2, pVSV-G, and pLentiCRISPRV2-blast containing a single guide RNA cloned into the BsmBI site (GE Healthcare). Transduced pools of Brkp110 and A7C11 cells were selected using blasticidin S.
For BT474 mouse xenograft studies 5-6 week old female NSG […] were anesthetized and one 17β-estradiol 60 day release pellet (Innovative Research of America Cat. No. SE-121) was injected subcutaneously via 10 gauge precision trochar into the lateral side of the neck between the ear and shoulder. 24 hours later 10^5 BT474 luciferase positive cells in 100 μl PBS:matrigel (growth factor reduced) were injected subcutaneously into the hind limb. For A7C11 and Brpkp110 xenografts, 5×10^5 cells in 100 μl PBS:Matrigel (growth factor reduced Corning Cat. No. 356231) were subcutaneously injected into the hindlimb of 5-6 week old female NSG mice […]. […] Tumors were measured thrice weekly via caliper measurement and tumor volume calculated as (L×W^2)/2 (where L is the longer of the 2 measurements). […]

Experiment [1] deals with BT474 tumors. The experiment is described as follows: BT474 tumor xenograft growth in NSG mice. Type of experiment: in vivo, mouse. As to the method: For BT474 mouse xenograft studies 5-6 week old female NSG […] were anesthetized and one 17β-estradiol 60 day release pellet (Innovative Research of America Cat. No. SE-121) was injected subcutaneously via 10 gauge precision trochar into the lateral side of the neck between the ear and shoulder. 24 hours later 10^5 BT474 luciferase positive cells in 100 μl PBS:matrigel (growth factor reduced) were injected subcutaneously into the hind limb. For A7C11 and Brpkp110 xenografts, 5×10^5 cells in 100 μl PBS:Matrigel (growth factor reduced Corning Cat. No. 356231) were subcutaneously injected into the hindlimb of 5-6 week old female NSG mice […]. Following tumor establishment in all groups, mice were randomized and treated intraperitoneally (IP) daily with vehicle (10% DMSO, 10% absolute ethanol, 20% solutol, 60% water containing 0.5% Tween20) or 100 mg/kg VY-3-135 as indicated in the figure legend. Tumors were measured thrice weekly via caliper measurement and tumor volume calculated as (L×W^2)/2 (where L is the longer of the 2 measurements). […]
Mice bearing luciferase positive tumors were injected IP with 150 mg/kg sterile filtered D-luciferin potassium salt (Gold Bio Cat. No. LUCK-1G). […] Images were analyzed using Living Image Software (Perkin Elmer). […]

Experiment [2] concerns BT474 tumors. Put plainly: QuantSeq 3' mRNA sequencing of BT474 tumor tissue. Type of experiment: in vivo, mouse. The following applies: vehicle vs treated mice. The method, then:
QuantSeq 3′ mRNA sequencing of BT474 tumor tissue from vehicle and VY-3-135 treated mice was performed. Similar to in vitro results in FIG. 3, the effects of VY-3-135 on gene transcription in vivo were minimal. […] Furthermore, of the 248 differentially regulated genes only 7 changed by more than 2-fold and none by more than 2.5-fold (FIGS. 14A-14B).

As for `CCn1c(C(O)(c2ccccc2)c2ccccc2)nc2ccc(C(=O)NC[C@@H](C)O)cc21` [VY-3-135, (R)-1-ethyl-2-(hydroxydiphenylmethyl)-N-(2-hydroxypropyl)-1H-benzo[d]imidazole-6-carboxamide], the “incorporation of 13C2-acetate into UDP-GlcNAc” value in the experiment with BT474 cells (BT474 cells (FIG. 11C)) and with MDA-MB-468 cells was “able to block incorporation of ^13C2-acetate into UDP-GlcNAc to nearly the levels of unlabeled cells” in each case. The “incorporation of 13C2-acetate into citrate” value in the experiment with BT474 cells (BT474 cells, H1, 24 hr (FIG. 2D), readout of ACSS1 and ACSS3) is reported as “did not decrease incorporation of ^13C2-acetate into citrate”. Moreover, in the experiment on BT474 cells (BT474 cells, hypoxia and low lipid medium, 24 hours (FIG. 2C)), the “use of acetate as a substrate for fatty acid synthesis (13C2-acetate into palmitate)” value is given as “markedly inhibits the use of acetate as a substrate for fatty acid synthesis at low nanomolar concentrations”. Also, the “sgACSS2 Brpkp110 tumor growth” value with sgACSS2 Brpkp110 tumors is “did not further affect the growth of Brpkp110 sgACSS2 tumors; also recorded: no further effect on tumor growth”. The “tumor palpability / regression at end of regimen” value with BT474 tumors [1] (BT474 luciferase tumors, VY-3-135 treated group) is recorded as “two of the tumors in VY-3-135 treated group were not palpable by the end of the regimen, with one tumor fully regressing”. Also, in the experiment on BT474 tumors [1] (VY-3-135 100 mg/kg IP daily, two weeks of treatment (FIG. 6A), 100 mg/kg), the BT474 tumor growth entry is recorded as “causes a significant decrease in BT474+luciferase tumor growth; also recorded: completely abrogated tumor growth”. In addition, in the experiment with BT474 tumors [2], the “effects on gene transcription in vivo” value is “minimal”.
